Experimental data reported in patent US20190124928A1, “ENHANCED HERBICIDAL COMPOSITIONS OF TRANSITION METAL CHELATES” (W. Neudorff GMBH KG, priority 2016, published 2019).

What was measured:
perennial ryegrass [1] = assay: Example 5 greenhouse white clover and turf test, grass damage; assay type: in vivo, Lolium perenne; details: sprayed twice at 100 ml/m^2, seven days after first spraying
Method: (§1) Unless otherwise specified, all of the iron solutions were made using the same molar concentration of iron ion as chelating agent. In the liquid formulations samples were prepared by diluting a metal chelate, iron HEDTA (Neu 1173H) or iron EDTA to the desired level of iron as specified using stirring. Neu 1173H contains the stabilizer sodium citrate at 1.5% prior to dilution. Dilutions of iron HEDTA to the level of 0.25% Fe incorporate 0.08% sodium citrate into the spray solutions. KCl was then diluted and added to the diluted metal chelate.
(§2) In the dry formulations, the iron chelate was simply blended with KCl and with other fertilizer ingredients. Samples were usually prepared within 48 hours of treatment. All of the outside tests were done on areas of grass and white clover that were at least 2 months old. For the greenhouse tests, white clover and dandelion were grown in a commercial greenhouse mix using supplemental lighting and heating. Each plant was grown in a 2¼ inch pot to a minimum diameter of 15-20 cm. Perennial ryegrass was grown in 2¼ inch pots in the same greenhouse conditions as above and they are at least 4 weeks old at the time of application. […]
(§3) All plant damage was visually assessed using a percentage rating scale from 0 (no injury) to 100% (death). […] Percentage control was calculated from the respective weed cover data (e.g. preferably using the Henderson & Tilton formula). […]

white clover = assay: Example 5 greenhouse white clover and turf test, white clover damage; assay type: in vivo, Trifolium repens; details: sprayed twice at 100 ml/m^2, seven days after first spraying
Method: as §1, §2, §3

dandelion = assay: Example 10 greenhouse dandelion and turf test with sodium sulfate, dandelion damage; assay type: in vivo, Taraxacum officinale; details: sprayed once at 200 ml/m^2, six days after first spraying
Method: as §1, §2, §3

perennial ryegrass [2] = assay: Example 10 greenhouse dandelion and turf test with sodium sulfate, grass damage; assay type: in vivo, Lolium perenne; details: sprayed once at 200 ml/m^2, six days after first spraying
Method: as §1, §2, §3

SMILES | Grass Damage (%) (perennial ryegrass [1]) | White Clover Damage (%) (white clover) | Dandelion damage (%) (dandelion) | Grass Damage (%) (perennial ryegrass [2])
[Cl-].[K+] [KCl 2%, potassium chloride] | 0% | 0% | – | –
O=S(=O)([O-])[O-].[Na+].[Na+] [Na2SO4 2%, sodium sulfate] | – | – | 0% | 4%
